Legend:
Ba/F3 ROS1-G2032R = assay: Antiproliferation assay; format: cell-based, mouse; conditions: Ba/F3 cells, cell growth inhibition, 72 h
Description: (§1) To assess targeted degradation of ROS1 fusion proteins, we first established a mouse pro-B cell line Ba/F3 as a model expressing the CD74-ROS1 oncogene or CD74-ROS1 with clinically observed secondary/tertiary mutations. The Ba/F3 cell line is dependent on interleukin-3 for survival and proliferation. Upon transduction of oncogenic ROS1, Ba/F3 cells become independent of interleukin-3 but dependent on the transduced driver gene.
(§2) Ba/F3 immortalized murine bone marrow–derived pro-B cells were obtained from Creative Biogene (Shirley, NY) and cultured in RPMI supplemented with 10% FBS and IL3 (0.5 ng/mL). Ba/F3 cells expressing ROS1 variants were maintained in RPMI supplemented with 10% FBS and puromycin (0.7 mg/mL). […] Each compound was dissolved in DMSO and serially diluted in RPMI for cell culture experiments.
(§3) To assess the 72 h effect of drug treatment on cell proliferation, 2000 to 3000 cells were plated in replicates of three in 96-well plates. The plates were placed in an incubator at 37 °C, 5% CO2 for 72 h. Following drug treatments, the cells were incubated with the Alamar Blue Assay reagent (BioRad), 5 μL each well for 4 h at 37 °C and 5% CO2. Luminescence was measured on a multiplate reader and analyzed. […] IC50 values were determined using a nonlinear regression model with a sigmoidal dose response in GraphPad. The data were collected based on triplicate experiments, and presented as mean ± SD.
(§4) The resulting virus was used to infect Ba/F3 cells. After retroviral infection, Ba/F3 cells were selected by incubation with puromycin (0.7 mg/mL) for 2 weeks. For Ba/F3 cells infected by the CD74–ROS1 variants, IL3 was withdrawn from the culture medium at least 2 weeks before the experiments.

ROS1 = ROS1 degradation in Ba/F3 cells (WES immunoblotting); format: cell-based; conditions: for DC50: concentration needed to reduce ROS1 protein by 50%, Ba/F3 cells; for Dmax (%) (ROS1): maximal degradation of ROS1 in Ba/F3 cells
Method: Protein levels were analyzed using a WES instrument according to the WES User Guide from ProteinSimple in duplicate experiments. The samples were mixed with the fluorescent 5 master mix (ProteinSimple) and then heated at 95 °C for 5 min. Boiled samples, biotinylated protein ladder, antibody diluent, Streptavidin-HRP, primary antibodies, ProteinSimple horseradish peroxidase conjugated antirabbit or antimouse secondary antibodies, luminol-peroxide, and wash buffer were loaded into the WES plate (Wes 12–230 kDa Prefilled Plates with Split Buffer, ProteinSimple). The plates and capillary cartridges were loaded into the WES instrument, and protein separation, antibody incubation, and imaging were performed according to manufacturer’s instructions. Compass software (ProteinSimple) was used to acquire the data and to generate the virtual blot image reconstruction and chemiluminescence signal intensity electropherograms. […] Protein levels are expressed as the AUC of the peak chemiluminescence intensity. Antibodies against phospho-ROS1(Tyr2274/2334) (E8F5J), ROS1 (D4D6(R)) were obtained from Cell Signaling Technology.

[1] = system: Ba/F3 CD74-ROS1 non mutant; assay: Antiproliferation assay (Alamar Blue, 72 h); format: cell-based, mouse; conditions: Ba/F3 cells, cell growth inhibition
Description: as §1, §2, §3, §4

Molecule	DC50 (ROS1) [nM]	IC50 (Ba/F3 ROS1-G2032R; Mus musculus, BaF3) [nM]	IC50 ([1]; Mus musculus, BaF3, 72 h) [nM]	IC50 (Ba/F3 ROS1-G2032R) [nM]	Dmax (%) (ROS1) (ROS1)	IC50 [1] [nM]
3-(5-(4-((4-(4-((5-Chloro-4-((2-(dimethylphosphoryl)phenyl)amino)pyrimidin-2-yl)amino)-3-methoxyphenyl)piperazin-1-yl)methyl)piperidin-1-yl)-1-oxoisoindolin-2-yl)piperidine-2,6-dione [9n]	11	–	–	195 ± 124	93	9.5 ± 0.5
C[C@@H](Oc1cc(-c2cnn(C3CCN(CC4CCN(c5ccc6c(c5)C(=O)N(C5CCC(=O)NC5=O)C6=O)CC4)CC3)c2)cnc1N)c1c(Cl)ccc(F)c1Cl (stereo partly drawn) [7g, 5-(4-((4-(4-(6-Amino-5-((R)-1-(2,6-dichloro-3-fluorophenyl)ethoxy)pyridin-3-yl)-1H-pyrazol-1-yl)piperidin-1-yl)methyl)piperidin-1-yl)-2-(2,6-dioxopiperidin-3-yl)isoindoline-1,3-dione]	21	> 5000	15 ± 4	–	85	–
C[C@@H](Oc1cc(-c2cnn(C3CCN(c4cccc5c4C(=O)N(C4CCC(=O)NC4=O)C5=O)CC3)c2)cnc1N)c1c(Cl)ccc(F)c1Cl (stereo partly drawn) [7a, 4-(4-(4-(6-Amino-5-((R)-1-(2,6-dichloro-3-fluorophenyl)ethoxy)pyridin-3-yl)-1H-pyrazol-1-yl)piperidin-1-yl)-2-(2,6-dioxopiperidin-3-yl)isoindoline-1,3-dione]	310	> 5000	264 ± 44	–	67	–
C[C@@H](Oc1cc(-c2cnn(C3CCN(CC4CCN(c5cccc6c5C(=O)N(C5CCC(=O)NC5=O)C6=O)CC4)CC3)c2)cnc1N)c1c(Cl)ccc(F)c1Cl (stereo partly drawn) [7c, 4-(4-((4-(4-(6-Amino-5-((R)-1-(2,6-dichloro-3-fluorophenyl)ethoxy)pyridin-3-yl)-1H-pyrazol-1-yl)piperidin-1-yl)methyl)piperidin-1-yl)-2-(2,6-dioxopiperidin-3-yl)isoindoline-1,3-dione]	368	> 5000	350 ± 106	–	76	–
4-(3-(4-(1-(4-((5-Chloro-4-((2-(dimethylphosphoryl)phenyl)amino)pyrimidin-2-yl)amino)-3-methoxyphenyl)piperidin-4-yl)piperazin-1-yl)azetidin-1-yl)-2-(2,6-dioxopiperidin-3-yl)isoindoline-1,3-dione [9j]	108	–	–	1040 ± 96	77	113 ± 16
C[C@@H](Oc1cc(-c2cnn(C3CCN(CCC4CCN(c5cccc6c5C(=O)N(C5CCC(=O)NC5=O)C6=O)CC4)CC3)c2)cnc1N)c1c(Cl)ccc(F)c1Cl (stereo partly drawn) [7d, 4-(4-(2-(4-(4-(6-Amino-5-((R)-1-(2,6-dichloro-3-fluorophenyl)ethoxy)pyridin-3-yl)-1H-pyrazol-1-yl)piperidin-1-yl)ethyl)piperidin-1-yl)-2-(2,6-dioxopiperidin-3-yl)isoindoline-1,3-dione]	145	> 5000	106 ± 29	–	78	–
C[C@@H](Oc1cc(-c2cnn(C3CCN(CC4CCN(CC5CCN(c6ccc7c(c6)C(=O)N(C6CCC(=O)NC6=O)C7=O)CC5)CC4)CC3)c2)cnc1N)c1c(Cl)ccc(F)c1Cl (stereo partly drawn) [7i, 5-(4-((4-((4-(4-(6-Amino-5-((R)-1-(2,6-dichloro-3-fluorophenyl)ethoxy)pyridin-3-yl)-1H-pyrazol-1-yl)piperidin-1-yl)methyl)piperidin-1-yl)methyl)piperidin-1-yl)-2-(2,6-dioxopiperidin-3-yl)isoindoline-1,3-dione]	338	> 5000	284 ± 51	–	32	–

More lines, main results first:

DC50 (ROS1) [nM]	IC50 (Ba/F3 ROS1-G2032R; Mus musculus, BaF3) [nM]	IC50 ([1]; Mus musculus, BaF3, 72 h) [nM]	Molecule	IC50 (Ba/F3 ROS1-G2032R) [nM]	Dmax (%) (ROS1) (ROS1)	IC50 [1] [nM]
145	> 10000	102 ± 24	COc1cc(N2CCC(N3CCN(CC4CCN(c5ccc(NC6CCC(=O)NC6=O)cc5)CC4)CC3)CC2)ccc1Nc1ncc(Cl)c(Nc2ccccc2P(C)(C)=O)n1 (stereo not drawn) [9q, 3-((4-(4-((4-(1-(4-((5-Chloro-4-((2-(dimethylphosphoryl)phenyl)amino)pyrimidin-2-yl)amino)-3-methoxyphenyl)piperidin-4-yl)piperazin-1-yl)methyl)piperidin-1-yl)phenyl)amino)piperidine-2,6-dione]	–	33	–
122	> 10000	116 ± 21	Cc1cc(Nc2ncc(Cl)c(Nc3ccccc3S(=O)(=O)C(C)C)n2)c(OC(C)C)cc1C1CCN(C2CN(C3CN(c4ccc5c(c4)C(=O)N(C4CCC(=O)NC4=O)C5=O)C3)C2)CC1 (stereo not drawn) [8o, 5-(3-(4-(4-((5-Chloro-4-((2-(isopropylsulfonyl)phenyl)amino)pyrimidin-2-yl)amino)-5-isopropoxy-2-methylphenyl)piperidin-1-yl)-[1,3′-biazetidin]-1′-yl)-2-(2,6-dioxopiperidin-3-yl)isoindoline-1,3-dione]	–	65	–
84	> 10000	75 ± 9	COc1cc(N2CCC(N3CCN(C(=O)CN4CCN(c5ccc(NC6CCC(=O)NC6=O)cc5)CC4)CC3)CC2)ccc1Nc1ncc(Cl)c(Nc2ccccc2P(C)(C)=O)n1 (stereo not drawn) [9s, 3-((4-(4-(2-(4-(1-(4-((5-Chloro-4-((2-(dimethylphosphoryl)phenyl)amino)pyrimidin-2-yl)amino)-3-methoxyphenyl)piperidin-4-yl)piperazin-1-yl)-2-oxoethyl)piperazin-1-yl)phenyl)amino)piperidine-2,6-dione]	–	40	–
56	> 10000	61 ± 3	COc1cc(N2CCC(N3CCN(CCC4CCN(c5ccc(NC6CCC(=O)NC6=O)cc5)CC4)CC3)CC2)ccc1Nc1ncc(Cl)c(Nc2ccccc2P(C)(C)=O)n1 (stereo not drawn) [9t, 3-((4-(4-(2-(4-(1-(4-((5-Chloro-4-((2-(dimethylphosphoryl)phenyl)amino)pyrimidin-2-yl)amino)-3-methoxyphenyl)piperidin-4-yl)piperazin-1-yl)ethyl)piperidin-1-yl)phenyl)amino)piperidine-2,6-dione]	–	45	–
140	> 10000	122 ± 17	Cc1cc(Nc2ncc(Cl)c(Nc3ccccc3S(=O)(=O)C(C)C)n2)c(OC(C)C)cc1C1CCN(CCCNc2cccc3c2C(=O)N(C2CCC(=O)NC2=O)C3=O)CC1 (stereo not drawn) [8b, 4-((3-(4-(4-((5-Chloro-4-((2-(isopropylsulfonyl)phenyl)amino)pyrimidin-2-yl)amino)-5-isopropoxy-2-methylphenyl)piperidin-1-yl)propyl)amino)-2-(2,6-dioxopiperidin-3-yl)isoindoline-1,3-dione]	–	71	–
75	491 ± 48	61 ± 5	COc1cc(N2CCC(N3CCN(C4CN(c5ccc6c(c5)C(=O)N(C5CCC(=O)NC5=O)C6=O)C4)CC3)CC2)ccc1Nc1ncc(Cl)c(Nc2ccccc2P(C)(C)=O)n1 (stereo not drawn) [9d, 5-(3-(4-(1-(4-((5-Chloro-4-((2-(dimethylphosphoryl)phenyl)amino)pyrimidin-2-yl)amino)-3-methoxyphenyl)piperidin-4-yl)piperazin-1-yl)azetidin-1-yl)-2-(2,6-dioxopiperidin-3-yl)isoindoline-1,3-dione]	–	90	–
155	950 ± 67	191 ± 60	Cc1cc(Nc2ncc(Cl)c(Nc3ccccc3S(=O)(=O)C(C)C)n2)c(OC(C)C)cc1C1CCN(C2CCN(CC3CN(c4cccc5c4C(=O)N(C4CCC(=O)NC4=O)C5=O)C3)CC2)CC1 (stereo not drawn) [8g, 4-(3-((4-(4-((5-Chloro-4-((2-(isopropylsulfonyl)phenyl)amino)pyrimidin-2-yl)amino)-5-isopropoxy-2-methylphenyl)-[1,4′-bipiperidin]-1′-yl)methyl)azetidin-1-yl)-2-(2,6-dioxopiperidin-3-yl)isoindoline-1,3-dione]	–	77	–
120	> 10000	106 ± 9	Cc1cc(Nc2ncc(Cl)c(Nc3ccccc3S(=O)(=O)C(C)C)n2)c(OC(C)C)cc1C1CCN(C2CCN(C3CCN(c4ccc5c(c4)C(=O)N(C4CCC(=O)NC4=O)C5=O)CC3)CC2)CC1 (stereo not drawn) [8s, 5-(4-(4-((5-Chloro-4-((2-(isopropylsulfonyl)phenyl)amino)pyrimidin-2-yl)amino)-5-isopropoxy-2-methylphenyl)-[1,4′:1′,4″-terpiperidin]-1″-yl)-2-(2,6-dioxopiperidin-3-yl)isoindoline-1,3-dione]	–	82	–
